# According to the NIST ThermoML archive (doi:10.1016/j.fluid.2008.02.007):
# Numbers after ± are expanded uncertainties.
# Conditions: Crystal; visual observation
row,SMILES,Normal melting temperature [°C]
1,O=C(O)c1ccc([N+](=O)[O-])cc1 [4-nitrobenzoic acid],240 ± 0.5
2,O=C(O)c1ccccc1[N+](=O)[O-] [2-nitrobenzoic acid],147.7 ± 0.5
